The values that follow come from ChEMBL document CHEMBL1201862, “PubChem BioAssay data set” (2004).

As usually defined, the GI50 is the concentration at which growth is held to half of that of the control.

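Method: 48-hour compound exposure of cells in 96-well plates, five concentrations, linear interpolation of endpoints. The concentration for 50% growth inhibition is given as GI50.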 Activity calls are given as the source filed them. No stated cut-off is given here; in the data, active = GI50 up to about 1.1 µM and inactive = higher.

Holding throughout (assay): DTP human tumour cell line panel, 48 h
Assay [1] has as its system SR.
Assay [2] has as its system T47D.
Assay [3] relates to COLO 205.
The test system of assay [4] is SN12C.
Assay [5] concerns CAKI-1.
The subject of assay [6] is MDA-N.
The test system of assay [7] is SK-MEL-28.
Assay [8] deals with HT-29.
In assay [9] the test system is SF-295.
In assay [10] the test system is ACHN.
Assay [11] deals with PC-3.
In assay [12] the test system is SK-MEL-5.
Assay [13] has as its system HOP-92.
Assay [14] concerns IGROV-1.
Assay [15] concerns Hs-578T.
In assay [16] the test system is NCI-H522.
The subject of assay [17] is A498.
Assay [18] relates to OVCAR-8.
For assay [19], the system named is KM12.
Assay [20] concerns MOLT-4.

For the molecule `O=C1Nc2ccccc2C1(O)Cc1ccccn1` (centres undefined), the GI50 in [1], in [2], in assay [3], in assay [4], in assay [5] and in assay [6] was > 100 µM (inactive) throughout. Moreover, the GI50 in assay [7], in assay [8], in assay [9], in assay [10], in assay [11] and in assay [12] was > 100 µM (inactive) each time. Also, the GI50 in [13], in assay [14], in [15], in [16], in assay [17] and in assay [18] was > 100 µM (inactive) throughout. For the same molecule, the GI50 in assay [19] was > 100 µM (inactive).

For `Cc1cccc(NC(=S)Nc2cccc(Cl)c2)n1`, the GI50 in assay [1], in assay [2], in [3], in assay [4], in assay [5] and in assay [6] was > 100 µM (inactive) each time. Further, the GI50 is > 100 µM (inactive) in assay [7]; > 100 µM (inactive) in assay [8]; > 100 µM (inactive) in assay [20]; 32.1 µM (inactive) in assay [9]; > 100 µM (inactive) in assay [10]; > 100 µM (inactive) in assay [11]. Besides, the GI50 was > 100 µM (inactive) in assay [12]; 44.2 µM (inactive) in [14]; > 65.3 µM (inactive) in assay [15]; 49.9 µM (inactive) in assay [16]; > 70.3 µM (inactive) in assay [17]; > 80.9 µM (inactive) in assay [18]. For the same molecule, the GI50 in assay [19] is > 100 µM (inactive).

Consider `O=C(NCCNCCO)N/N=C/c1ccc(Cl)cc1`, for which the GI50 in [1], in [2], in [3], in assay [4], in assay [5] and in [6] was > 100 µM (inactive) throughout. Also, the GI50 in assay [7], in [8], in [20], in assay [9], in [10] and in assay [11] was > 100 µM (inactive) throughout. Besides, the GI50 in assay [12], in assay [14], in [15], in assay [16], in assay [17] and in [18] was > 100 µM (inactive) in each case. For the same molecule, the GI50 in [19] is > 100 µM (inactive).

On to `CSC(=O)c1sc(SC)[n+](-c2ccccc2)c1O`, for which the GI50 in assay [1] is 29.8 µM (inactive); in [2], 7.35 µM (inactive); in assay [3], 27.7 µM (inactive); in [4], 19.6 µM (inactive); in [6] it was 17 µM (inactive); in [7] it was 17.7 µM (inactive). Further, the GI50 in [8] is 20.2 µM (inactive); in assay [20], 11.1 µM (inactive); in [9], 14.9 µM (inactive); in [10], 27.9 µM (inactive); in assay [11] it was 14 µM (inactive); in [12] it was 20.8 µM (inactive). The GI50 in assay [14] was 19.2 µM (inactive); in [15] it was 28.3 µM (inactive); in assay [16], 10.4 µM (inactive); in [17], 30.1 µM (inactive); in assay [18] it was 22.8 µM (inactive); in [19], > 10 µM (inactive).

Take `Cc1ccc2nc(N/N=C/c3cccc(C)n3)cc(C)c2c1`: the GI50 was 16.4 µM (inactive) in [1]; 16 µM (inactive) in [2]; 15 µM (inactive) in [3]; 17.2 µM (inactive) in [4]; 16.8 µM (inactive) in [5]; 16.3 µM (inactive) in [6]. The GI50 in [7] was 17.1 µM (inactive); in assay [8], 12.3 µM (inactive); in assay [9] it was 15.4 µM (inactive); in assay [10] it was 15.7 µM (inactive); in assay [11], 17.7 µM (inactive); in assay [12] it was 17.2 µM (inactive). Also, the GI50 was 17.6 µM (inactive) in [13]; 13.9 µM (inactive) in assay [14]; 23.8 µM (inactive) in [15]; 17.6 µM (inactive) in assay [16]; 17.9 µM (inactive) in assay [17]; 20.5 µM (inactive) in assay [18]. Further, in assay [19], the GI50 is 12.7 µM (inactive).

Consider `Cc1ccc(/C=C2\CCS(=O)(=O)c3ccccc3C2=O)cc1`, for which the GI50 in [1] was 10.6 µM (inactive); in [2], 16.1 µM (inactive); in assay [3] it was 15.2 µM (inactive); in [4], 19.1 µM (inactive); in [5], 18.3 µM (inactive); in [6], 28 µM (inactive). For the same molecule, the GI50 in assay [7] is 17.8 µM (inactive); in [8], 17 µM (inactive); in assay [20], 9.1 µM (inactive); in assay [9], 19.2 µM (inactive); in [10], 15.2 µM (inactive); in [11], 20.4 µM (inactive). The GI50 is 15 µM (inactive) in assay [13]; 11.4 µM (inactive) in assay [14]; 37.4 µM (inactive) in assay [15]; 21.2 µM (inactive) in assay [17]; 13.9 µM (inactive) in [18]; 15.5 µM (inactive) in assay [19].

Take `O=P(Oc1ccccc1)(Oc1ccccc1)Oc1c[nH]c2ccccc12`: the GI50 is 25.4 µM (inactive) in [1]; 8.91 µM (inactive) in assay [2]; 2.37 µM (inactive) in [3]; 11.6 µM (inactive) in assay [4]; 4.13 µM (inactive) in assay [5]; 11 µM (inactive) in assay [6]. The GI50 in assay [7] was 12.7 µM (inactive); in [8] it was 6.07 µM (inactive); in [20], 6.53 µM (inactive); in [9] it was 3.28 µM (inactive); in assay [11], 0.847 µM (active); in [12] it was 11.3 µM (inactive). Besides, the GI50 was 1.57 µM (inactive) in assay [13]; 4.07 µM (inactive) in assay [14]; 13.3 µM (inactive) in assay [15]; 14.1 µM (inactive) in [17]; 13.5 µM (inactive) in [18]; 19.4 µM (inactive) in assay [19].

With `CC12CC(c3ccccc3O1)C(C(=O)Nc1cccc(F)c1)C(=O)N2` (centres undefined), the GI50 in assay [1] is 38.7 µM (inactive); in assay [2], 25.2 µM (inactive); in [3] it was 62.7 µM (inactive); in assay [5] it was 92.3 µM (inactive); in [6], 54 µM (inactive); in [7], 78.2 µM (inactive). Besides, the GI50 was 55.8 µM (inactive) in [8]; 18.8 µM (inactive) in assay [20]; 64 µM (inactive) in [9]; > 100 µM (inactive) in [10]; 49.1 µM (inactive) in [11]; 22.8 µM (inactive) in assay [12]. The GI50 in [14] is 40.7 µM (inactive); in assay [15] it was > 100 µM (inactive); in assay [16], > 100 µM (inactive); in assay [17], > 100 µM (inactive); in assay [18], 24.4 µM (inactive); in assay [19], 49.7 µM (inactive).

`C=CCN(c1cc(OC)c2c(c1[N+](=O)[O-])C(C)(SC)C(=O)N2)S(C)(=O)=O` (centres undefined): the GI50 in assay [1] was 31.8 µM (inactive); in assay [2], > 100 µM (inactive); in assay [3] it was > 100 µM (inactive); in assay [4], > 100 µM (inactive); in [5] it was > 100 µM (inactive); in assay [6] it was > 100 µM (inactive). Moreover, the GI50 in assay [7] is > 100 µM (inactive); in assay [8], > 100 µM (inactive); in assay [9] it was 77.1 µM (inactive); in [10] it was > 100 µM (inactive); in assay [11], > 100 µM (inactive); in assay [12], > 100 µM (inactive). Also, the GI50 in assay [13] is 32.5 µM (inactive); in assay [14], > 100 µM (inactive); in [15], 55.5 µM (inactive); in [16], 82.2 µM (inactive); in assay [17] it was > 100 µM (inactive); in assay [18] it was > 100 µM (inactive). The GI50 in assay [19] is > 100 µM (inactive).

For the molecule `C=CC(CCc1ccc(C(=O)OCC)cc1)c1c(N)nc(N)[nH]c1=O` (centres undefined), the GI50 in assay [1] is > 100 µM (inactive); in assay [2], 72.4 µM (inactive); in [3], > 100 µM (inactive); in assay [4] it was > 100 µM (inactive); in assay [5], 86.3 µM (inactive); in assay [6], 76.6 µM (inactive). Further, the GI50 in assay [7] was > 100 µM (inactive); in assay [8], 72.8 µM (inactive); in assay [20] it was 59.4 µM (inactive); in assay [9], 57.8 µM (inactive); in [11], 52.6 µM (inactive); in assay [12], 23.5 µM (inactive). The GI50 was 12.6 µM (inactive) in assay [13]; > 100 µM (inactive) in assay [14]; > 100 µM (inactive) in assay [15]; 21.2 µM (inactive) in [17]; 95.1 µM (inactive) in [18]; > 100 µM (inactive) in [19].

In the case of `c1ccc(-c2nnn(CCN3CCCCC3)n2)cc1`, the GI50 in [1], in assay [2], in assay [3], in [4], in [5] and in assay [6] was > 100 µM (inactive) each time. Also, the GI50 in assay [7], in [8], in assay [9], in assay [10], in [11] and in [12] was > 100 µM (inactive) throughout. For the same molecule, the GI50 in [13], in assay [14], in [15], in [16], in [17] and in assay [18] was > 100 µM (inactive) in each case. For the same molecule, the GI50 in assay [19] was > 100 µM (inactive).
